According to ChEMBL document CHEMBL1201862, “PubChem BioAssay data set” (2004):
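All cell lines were grown in 96-well plates and treated with compound for 48 hours. The concentration for 50% growth inhibition is given as GI50.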 Activity calls are given as the source filed them. No stated cut-off is given here; in the data, active = GI50 up to about 1.1 µM and inactive = higher.

Tests used:
Assay in all cases: NCI tumour cell line growth inhibition, 48 h
786-0 = system: 786-0
A498 = system: A498
COLO 205 = system: COLO 205
HOP-62 = system: HOP-62
Hs-578T = system: Hs-578T
IGROV-1 = system: IGROV-1
MOLT-4 = system: MOLT-4
NCI-H226 = system: NCI-H226
NCI/ADR-RES = system: NCI/ADR-RES
OVCAR-5 = system: OVCAR-5
PC-3 = system: PC-3
RPMI-8226 = system: RPMI-8226
SK-MEL-28 = system: SK-MEL-28
SK-MEL-5 = system: SK-MEL-5
SK-OV-3 = system: SK-OV-3
SN12C = system: SN12C
SNB-19 = system: SNB-19
U-251 = system: U-251
UACC-62 = system: UACC-62
NCI-H522 = system: NCI-H522

Compound	GI50 (786-0)	GI50 (A498)	GI50 (COLO 205)	GI50 (HOP-62)	GI50 (Hs-578T)	GI50 (IGROV-1)	GI50 (MOLT-4)	GI50 (NCI-H226)	GI50 (NCI/ADR-RES)	GI50 (OVCAR-5)	GI50 (PC-3)	GI50 (RPMI-8226)	GI50 (SK-MEL-28)	GI50 (SK-MEL-5)	GI50 (SK-OV-3)	GI50 (SN12C)	GI50 (SNB-19)	GI50 (U-251)	GI50 (UACC-62)	GI50 (NCI-H522)
CC1(C)C(CC(=O)O)CCCC1CC(=O)O (stereo not drawn)	> 100 µM (inactive)	> 100 µM (inactive)	> 100 µM (inactive)	> 100 µM (inactive)	> 100 µM (inactive)	> 100 µM (inactive)	> 100 µM (inactive)	55.5 µM (inactive)	> 100 µM (inactive)	> 100 µM (inactive)	> 100 µM (inactive)	> 100 µM (inactive)	> 100 µM (inactive)	> 100 µM (inactive)	> 100 µM (inactive)	> 100 µM (inactive)	> 100 µM (inactive)	> 100 µM (inactive)	> 100 µM (inactive)	
CC1=CC(=O)C(C(O)(C(F)(F)F)C(F)(F)F)C(C)(C)C1 (stereo not drawn)	> 10 µM (inactive)	> 10 µM (inactive)	> 10 µM (inactive)	> 10 µM (inactive)	> 10 µM (inactive)	> 10 µM (inactive)	> 10 µM (inactive)	> 10 µM (inactive)	> 10 µM (inactive)		> 10 µM (inactive)	> 10 µM (inactive)	> 10 µM (inactive)	> 10 µM (inactive)	> 10 µM (inactive)	> 10 µM (inactive)	> 10 µM (inactive)	> 10 µM (inactive)	> 10 µM (inactive)	> 10 µM (inactive)
COc1ccc(/C=C2\OC(=O)C(Cl)=C2c2ccc(OC)c(Cl)c2)cc1	15.4 µM (inactive)	17.7 µM (inactive)	40.4 µM (inactive)	15.2 µM (inactive)	20.9 µM (inactive)	32 µM (inactive)	48.9 µM (inactive)		21.4 µM (inactive)	24.6 µM (inactive)	30.8 µM (inactive)	24.9 µM (inactive)	35.7 µM (inactive)	17.3 µM (inactive)	33.9 µM (inactive)		34.1 µM (inactive)	29.4 µM (inactive)	26.5 µM (inactive)	25.3 µM (inactive)
Nc1nc(N)c2cc(-c3ccccc3)cnc2n1	9.89 µM (inactive)	14.9 µM (inactive)	14.3 µM (inactive)	17 µM (inactive)	20.2 µM (inactive)	12.9 µM (inactive)	9.89 µM (inactive)	16.5 µM (inactive)	24.4 µM (inactive)	14.6 µM (inactive)	8 µM (inactive)	16.6 µM (inactive)	17.7 µM (inactive)	10 µM (inactive)	81.1 µM (inactive)	12.2 µM (inactive)	18.2 µM (inactive)	15.1 µM (inactive)		21.6 µM (inactive)
O=S(=O)(Cc1ccccc1)c1nnc(S(=O)(=O)c2ccc(Cl)cc2)s1	23.6 µM (inactive)	22 µM (inactive)	16 µM (inactive)	21.4 µM (inactive)	18.1 µM (inactive)		3.39 µM (inactive)		25 µM (inactive)	24.8 µM (inactive)	21.8 µM (inactive)	15.9 µM (inactive)	19.9 µM (inactive)	17.9 µM (inactive)	23.3 µM (inactive)	20.2 µM (inactive)	19.6 µM (inactive)	33 µM (inactive)	27 µM (inactive)	14 µM (inactive)
O=C(O)Cc1cccc2c(=O)c3ccccc3oc12	> 100 µM (inactive)	> 100 µM (inactive)	> 100 µM (inactive)	> 100 µM (inactive)	> 100 µM (inactive)	> 100 µM (inactive)	> 100 µM (inactive)	> 100 µM (inactive)	> 100 µM (inactive)		> 100 µM (inactive)	> 100 µM (inactive)	> 100 µM (inactive)	> 100 µM (inactive)	17.7 µM (inactive)	> 100 µM (inactive)	> 100 µM (inactive)	> 100 µM (inactive)	24.3 µM (inactive)	48.5 µM (inactive)
CC(C)CCC[C@@H](C)C1CCC2[C@@H]3CCC4CC(CCC=C(c5cc(Cl)c(OC(=O)c6ccccc6)c(C(=O)O)c5)c5cc(Cl)c(OC(=O)c6ccccc6)c(C(=O)O)c5)CC[C@]4(C)C3CC[C@@]21C (stereo partly drawn)	22.6 µM (inactive)	52.5 µM (inactive)	> 100 µM (inactive)	> 100 µM (inactive)	> 100 µM (inactive)	34.8 µM (inactive)	> 100 µM (inactive)	85.7 µM (inactive)	> 100 µM (inactive)	> 100 µM (inactive)	> 100 µM (inactive)	> 100 µM (inactive)		28.8 µM (inactive)	> 100 µM (inactive)	> 100 µM (inactive)	> 100 µM (inactive)	> 100 µM (inactive)	> 100 µM (inactive)	> 100 µM (inactive)
COc1cccc2c1[C@H](OC)[C@]13O[C@@]1(C2=O)[C@H](O)[C@H](C)[C@@](O)(C(=O)[C@@H]1O[C@H]1C)[C@@H]3O	0.264 µM (active)	0.253 µM (active)	0.165 µM (active)	0.232 µM (active)	0.235 µM (active)	0.229 µM (active)	0.299 µM (active)	0.335 µM (active)	0.337 µM (active)		0.266 µM (active)	0.172 µM (active)	0.23 µM (active)	0.172 µM (active)	0.21 µM (active)			0.303 µM (active)	0.298 µM (active)	0.185 µM (active)
